Assay results from ChEMBL document CHEMBL3352227, “Synthesis, antimycobacterial and antibacterial evaluation of l-[(1R, 2S)-2-fluorocyclopropyl]fluoroquinolone derivatives containing an oxime functional moiety” (Eur J Med Chem, 2014).
≈ marks a conversion by molar mass, not a printed value.

system: Klebsiella pneumoniae; assay: Antibacterial activity against Klebsiella pneumoniae 12-4 after 18 to 24 hrs by standard twofold serial dilution method; format: functional

Q: `NCC1CN(c2cc3c(cc2F)c(=O)c(C(=O)O)cn3[C@@H]2C[C@@H]2F)C/C1=N/OCc1ccccc1` (some centres not stated) was tested. Which MIC did it give?
A: The MIC was 0.25 µg/mL (≈ 0.518 µM).

system: Klebsiella pneumoniae; assay: Antibacterial activity against Klebsiella pneumoniae 12-2 after 18 to 24 hrs by standard twofold serial dilution method; format: functional

Q: How did the MIC turn out when `NCC1CN(c2cc3c(cc2F)c(=O)c(C(=O)O)cn3[C@@H]2C[C@@H]2F)C/C1=N/OCc1ccccc1` (some centres not stated) was run?
A: The MIC was 0.25 µg/mL (≈ 0.518 µM).

system: Staphylococcus epidermidis; assay: Antibacterial activity against methicillin-sensitive Staphylococcus epidermidis 12-8 after 18 to 24 hrs by standard twofold serial dilution method; format: functional

Q: `NCC1CN(c2cc3c(cc2F)c(=O)c(C(=O)O)cn3[C@@H]2C[C@@H]2F)C/C1=N/OCc1ccccc1` (some centres not stated) was tested. Which MIC did it give?
A: The MIC was 0.125 µg/mL (≈ 0.259 µM).

system: Staphylococcus epidermidis; assay: Antibacterial activity against methicillin-sensitive Staphylococcus epidermidis 12-6 after 18 to 24 hrs by standard twofold serial dilution method; format: functional

Q: Which MIC does the source give for `NCC1CN(c2cc3c(cc2F)c(=O)c(C(=O)O)cn3[C@@H]2C[C@@H]2F)C/C1=N/OCc1ccccc1` (some centres not stated) here?
A: Its MIC is 0.06 µg/mL (≈ 0.124 µM).

system: Escherichia coli; assay: Antibacterial activity against extended-spectrum beta-lactamase producing Escherichia coli 12-14 after 18 to 24 hrs by standard twofold serial dilution method; format: functional

Q: For `NCC1CN(c2cc3c(cc2F)c(=O)c(C(=O)O)cn3[C@@H]2C[C@@H]2F)C/C1=N/OCc1ccccc1` (some centres not stated), which MIC is on record?
A: Its MIC is 16 µg/mL (≈ 33.2 µM).

system: Staphylococcus epidermidis; assay: Antibacterial activity against methicillin-sensitive Staphylococcus epidermidis 12-1 after 18 to 24 hrs by standard twofold serial dilution method; format: functional

Q: `NCC1CN(c2cc3c(cc2F)c(=O)c(C(=O)O)cn3[C@@H]2C[C@@H]2F)C/C1=N/OCc1ccccc1` (some centres not stated) was tested. Which MIC did it give?
A: The MIC was 0.125 µg/mL (≈ 0.259 µM).

system: Escherichia coli; assay: Antibacterial activity against extended-spectrum beta-lactamase producing Escherichia coli 12-15 after 18 to 24 hrs by standard twofold serial dilution method; format: functional

Q: For `NCC1CN(c2cc3c(cc2F)c(=O)c(C(=O)O)cn3[C@@H]2C[C@@H]2F)C/C1=N/OCc1ccccc1` (some centres not stated), which MIC is on record?
A: The MIC was 64 µg/mL (≈ 133 µM).

system: Klebsiella pneumoniae; assay: Antibacterial activity against extended-spectrum beta-lactamase producin Klebsiella pneumoniae 12-3 after 18 to 24 hrs by standard twofold serial dilution method; format: functional

Q: `NCC1CN(c2cc3c(cc2F)c(=O)c(C(=O)O)cn3[C@@H]2C[C@@H]2F)C/C1=N/OCc1ccccc1` (some centres not stated) was tested. Which MIC did it give?
A: The MIC was 16 µg/mL (≈ 33.2 µM).

system: Staphylococcus epidermidis; assay: Antibacterial activity against methicillin-sensitive Staphylococcus epidermidis 12-3 after 18 to 24 hrs by standard twofold serial dilution method; format: functional

Q: For `NCC1CN(c2cc3c(cc2F)c(=O)c(C(=O)O)cn3[C@@H]2C[C@@H]2F)C/C1=N/OCc1ccccc1` (some centres not stated), which MIC is on record?
A: The MIC was 0.125 µg/mL (≈ 0.259 µM).

system: Staphylococcus aureus; assay: Antibacterial activity against methicillin-resistant Staphylococcus aureus 12-4 after 18 to 24 hrs by standard twofold serial dilution method; format: functional

Q: `NCC1CN(c2cc3c(cc2F)c(=O)c(C(=O)O)cn3[C@@H]2C[C@@H]2F)C/C1=N/OCc1ccccc1` (some centres not stated) was tested. Which MIC did it give?
A: The MIC was 8 µg/mL (≈ 16.6 µM).

system: Pseudomonas aeruginosa; assay: Antibacterial activity against Pseudomonas aeruginosa 12-12 after 18 to 24 hrs by standard twofold serial dilution method; format: functional

Q: `NCC1CN(c2cc3c(cc2F)c(=O)c(C(=O)O)cn3[C@@H]2C[C@@H]2F)C/C1=N/OCc1ccccc1` (some centres not stated) was tested. Which MIC did it give?
A: The MIC was 1 µg/mL (≈ 2.07 µM).

system: Klebsiella pneumoniae; assay: Antibacterial activity against extended-spectrum beta-lactamase producin Klebsiella pneumoniae 12-7 after 18 to 24 hrs by standard twofold serial dilution method; format: functional

Q: With `NCC1CN(c2cc3c(cc2F)c(=O)c(C(=O)O)cn3[C@@H]2C[C@@H]2F)C/C1=N/OCc1ccccc1` (some centres not stated) as the compound, how does the MIC read?
A: The MIC was 16 µg/mL (≈ 33.2 µM).

system: Klebsiella pneumoniae; assay: Antibacterial activity against extended-spectrum beta-lactamase producin Klebsiella pneumoniae 12-14 after 18 to 24 hrs by standard twofold serial dilution method; format: functional

Q: For `NCC1CN(c2cc3c(cc2F)c(=O)c(C(=O)O)cn3[C@@H]2C[C@@H]2F)C/C1=N/OCc1ccccc1` (some centres not stated), which MIC is on record?
A: The MIC was 64 µg/mL (≈ 133 µM).

system: Escherichia coli; assay: Antibacterial activity against Escherichia coli ATCC 25922 after 18 to 24 hrs by standard twofold serial dilution method; format: functional

Q: For `NCC1CN(c2cc3c(cc2F)c(=O)c(C(=O)O)cn3[C@@H]2C[C@@H]2F)C/C1=N/OCc1ccccc1` (some centres not stated), which MIC is on record?
A: The MIC was 0.06 µg/mL (≈ 0.124 µM).

system: Staphylococcus aureus; assay: Antibacterial activity against methicillin-sensitive Staphylococcus aureus 12-5 after 18 to 24 hrs by standard twofold serial dilution method; format: functional

Q: `NCC1CN(c2cc3c(cc2F)c(=O)c(C(=O)O)cn3[C@@H]2C[C@@H]2F)C/C1=N/OCc1ccccc1` (some centres not stated) was tested. Which MIC did it give?
A: The MIC was 0.06 µg/mL (≈ 0.124 µM).

system: Streptococcus pneumoniae; assay: Antibacterial activity against Streptococcus pneumoniae ATCC 49619 after 18 to 24 hrs by standard twofold serial dilution method; format: functional

Q: How did the MIC turn out when `NCC1CN(c2cc3c(cc2F)c(=O)c(C(=O)O)cn3[C@@H]2C[C@@H]2F)C/C1=N/OCc1ccccc1` (some centres not stated) was run?
A: The MIC was 0.06 µg/mL (≈ 0.124 µM).

system: Mycobacterium tuberculosis; assay: Antimycobacterial activity against Mycobacterium tuberculosis H37Rv ATCC 27294 by MABA method; format: functional

Q: How did the MIC turn out when `NCC1CN(c2cc3c(cc2F)c(=O)c(C(=O)O)cn3[C@@H]2C[C@@H]2F)C/C1=N/OCc1ccccc1` (some centres not stated) was run?
A: The MIC was 0.25 µg/mL (≈ 0.518 µM).

system: Staphylococcus aureus; assay: Antibacterial activity against methicillin-resistant Staphylococcus aureus 12-2 after 18 to 24 hrs by standard twofold serial dilution method; format: functional

Q: `NCC1CN(c2cc3c(cc2F)c(=O)c(C(=O)O)cn3[C@@H]2C[C@@H]2F)C/C1=N/OCc1ccccc1` (some centres not stated) was tested. Which MIC did it give?
A: Its MIC is 4 µg/mL (≈ 8.29 µM).

system: Streptococcus pneumoniae; assay: Antibacterial activity against Streptococcus pneumoniae 12-18 after 18 to 24 hrs by standard twofold serial dilution method; format: functional

Q: With `NCC1CN(c2cc3c(cc2F)c(=O)c(C(=O)O)cn3[C@@H]2C[C@@H]2F)C/C1=N/OCc1ccccc1` (some centres not stated) as the compound, how does the MIC read?
A: Its MIC is 0.25 µg/mL (≈ 0.518 µM).

system: Klebsiella pneumoniae; assay: Antibacterial activity against extended-spectrum beta-lactamase producin Klebsiella pneumoniae 12-4 after 18 to 24 hrs by standard twofold serial dilution method; format: functional

Q: How did the MIC turn out when `NCC1CN(c2cc3c(cc2F)c(=O)c(C(=O)O)cn3[C@@H]2C[C@@H]2F)C/C1=N/OCc1ccccc1` (some centres not stated) was run?
A: Its MIC is 16 µg/mL (≈ 33.2 µM).

system: Staphylococcus aureus; assay: Antibacterial activity against methicillin-sensitive Staphylococcus aureus 12-1 after 18 to 24 hrs by standard twofold serial dilution method; format: functional

Q: With `NCC1CN(c2cc3c(cc2F)c(=O)c(C(=O)O)cn3[C@@H]2C[C@@H]2F)C/C1=N/OCc1ccccc1` (some centres not stated) as the compound, how does the MIC read?
A: The MIC was 0.06 µg/mL (≈ 0.124 µM).

system: Staphylococcus epidermidis; assay: Antibacterial activity against methicillin-resistant Staphylococcus epidermidis 12-6 after 18 to 24 hrs by standard twofold serial dilution method; format: functional

Q: Which MIC does the source give for `NCC1CN(c2cc3c(cc2F)c(=O)c(C(=O)O)cn3[C@@H]2C[C@@H]2F)C/C1=N/OCc1ccccc1` (some centres not stated) here?
A: The MIC was 0.5 µg/mL (≈ 1.04 µM).

system: Klebsiella pneumoniae; assay: Antibacterial activity against Klebsiella pneumoniae 12-1 after 18 to 24 hrs by standard twofold serial dilution method; format: functional

Q: For `NCC1CN(c2cc3c(cc2F)c(=O)c(C(=O)O)cn3[C@@H]2C[C@@H]2F)C/C1=N/OCc1ccccc1` (some centres not stated), which MIC is on record?
A: Its MIC is 0.06 µg/mL (≈ 0.124 µM).

system: Staphylococcus aureus; assay: Antibacterial activity against methicillin-sensitive Staphylococcus aureus 12-4 after 18 to 24 hrs by standard twofold serial dilution method; format: functional

Q: For `NCC1CN(c2cc3c(cc2F)c(=O)c(C(=O)O)cn3[C@@H]2C[C@@H]2F)C/C1=N/OCc1ccccc1` (some centres not stated), which MIC is on record?
A: Its MIC is 0.06 µg/mL (≈ 0.124 µM).

system: Staphylococcus aureus; assay: Antibacterial activity against methicillin-resistant Staphylococcus aureus 12-5 after 18 to 24 hrs by standard twofold serial dilution method; format: functional

Q: How did the MIC turn out when `NCC1CN(c2cc3c(cc2F)c(=O)c(C(=O)O)cn3[C@@H]2C[C@@H]2F)C/C1=N/OCc1ccccc1` (some centres not stated) was run?
A: The MIC was 4 µg/mL (≈ 8.29 µM).

system: Escherichia coli; assay: Antibacterial activity against Escherichia coli 12-1 after 18 to 24 hrs by standard twofold serial dilution method; format: functional

Q: How did the MIC turn out when `NCC1CN(c2cc3c(cc2F)c(=O)c(C(=O)O)cn3[C@@H]2C[C@@H]2F)C/C1=N/OCc1ccccc1` (some centres not stated) was run?
A: Its MIC is 0.06 µg/mL (≈ 0.124 µM).

system: Staphylococcus aureus; assay: Antibacterial activity against Staphylococcus aureus ATCC 25923 after 18 to 24 hrs by standard twofold serial dilution method; format: functional

Q: For `NCC1CN(c2cc3c(cc2F)c(=O)c(C(=O)O)cn3[C@@H]2C[C@@H]2F)C/C1=N/OCc1ccccc1` (some centres not stated), which MIC is on record?
A: The MIC was less than 0.008 µg/mL.

system: Pseudomonas aeruginosa; assay: Antibacterial activity against Pseudomonas aeruginosa 12-14 after 18 to 24 hrs by standard twofold serial dilution method; format: functional

Q: For `NCC1CN(c2cc3c(cc2F)c(=O)c(C(=O)O)cn3[C@@H]2C[C@@H]2F)C/C1=N/OCc1ccccc1` (some centres not stated), which MIC is on record?
A: The MIC was 1 µg/mL (≈ 2.07 µM).

system: Escherichia coli; assay: Antibacterial activity against extended-spectrum beta-lactamase producing Escherichia coli 12-3 after 18 to 24 hrs by standard twofold serial dilution method; format: functional

Q: How did the MIC turn out when `NCC1CN(c2cc3c(cc2F)c(=O)c(C(=O)O)cn3[C@@H]2C[C@@H]2F)C/C1=N/OCc1ccccc1` (some centres not stated) was run?
A: The MIC was 32 µg/mL (≈ 66.3 µM).

system: Staphylococcus aureus; assay: Antibacterial activity against methicillin-sensitive Staphylococcus aureus 12-2 after 18 to 24 hrs by standard twofold serial dilution method; format: functional

Q: `NCC1CN(c2cc3c(cc2F)c(=O)c(C(=O)O)cn3[C@@H]2C[C@@H]2F)C/C1=N/OCc1ccccc1` (some centres not stated) was tested. Which MIC did it give?
A: Its MIC is less than 0.008 µg/mL.

system: Staphylococcus epidermidis; assay: Antibacterial activity against methicillin-resistant Staphylococcus epidermidis 12-1 after 18 to 24 hrs by standard twofold serial dilution method; format: functional

Q: For `NCC1CN(c2cc3c(cc2F)c(=O)c(C(=O)O)cn3[C@@H]2C[C@@H]2F)C/C1=N/OCc1ccccc1` (some centres not stated), which MIC is on record?
A: Its MIC is 1 µg/mL (≈ 2.07 µM).

system: Escherichia coli; assay: Antibacterial activity against extended-spectrum beta-lactamase producing Escherichia coli 12-2 after 18 to 24 hrs by standard twofold serial dilution method; format: functional

Q: `NCC1CN(c2cc3c(cc2F)c(=O)c(C(=O)O)cn3[C@@H]2C[C@@H]2F)C/C1=N/OCc1ccccc1` (some centres not stated) was tested. Which MIC did it give?
A: The MIC was 64 µg/mL (≈ 133 µM).
